The values below come from PMC8667885, “2-Aminobenzoxazole-appended coumarins as potent and selective inhibitors of tumour-associated carbonic anhydrases” (Journal of Enzyme Inhibition and Medicinal Chemistry, 2021).

A word on the GI50: it is the concentration that inhibits growth by half.

In data set [1] the test system is BJ-hTert, human fibroblasts. The data set is described as follows: antiproliferative assay (NCI protocol), non-tumour BJ-hTert. The settings on record: Fibroblast; non-tumour cell line, human fibroblasts. The class given is cell-based. How it is done: (§1) The antiproliferative assays were conducted following the protocol of the US National Cancer Institute (NCI), with minor modifications.
(§2) The coumarin-benzoxazole hybrids were also tested as antiproliferative agents against a panel of six human solid tumour cell lines (Table 2): A549 (non-small cell lung), HBL-100 (breast), HeLa (cervix), SW1573 (non-small cell lung) as examples of drug-sensitive lines, and T-47D (breast) and WiDr (colon) as multidrug-resistant lines. A non-tumour cell line (BJ-hTert, human fibroblasts) was also used for analysing the selectivity. Chemotherapeutic agents 5-fluorouracyl (5-FU) and cisplatin (CDDP) were included in the study as drug references.

In data set [2] the target is T1, human CA II (Homo sapiens, UniProt P00918). The data set is described as follows: stopped-flow CO2 hydrase assay, CA II.
Source text: (§3) A stopped-flow CO2 hydrase assay has been employed as reported earlier[10–12].
The subject of data set [3] is SW1573 (non-small cell lung). Briefly: antiproliferative assay (NCI protocol), SW1573. The class given is cell-based, human. The settings on record: Homo sapiens, SW1573; antiproliferative activity. On the procedure: as §1, §2
Data set [4] has as its system HBL-100 (breast). Briefly: antiproliferative assay (NCI protocol), HBL-100. The class given is cell-based, human. The settings on record: Homo sapiens, HBL-100; antiproliferative activity. How it is done: as §1, §2
Data set [5] deals with human CA XII (Homo sapiens, UniProt O43570). Briefly: stopped-flow CO2 hydrase assay, CA XII. The following applies: for Selectivity ratio I/XII: ratio of Ki CA I / CA XII; for Selectivity ratio II/XII: ratio of Ki CA II / CA XII.
human CA XII, sequence (O43570 25-354): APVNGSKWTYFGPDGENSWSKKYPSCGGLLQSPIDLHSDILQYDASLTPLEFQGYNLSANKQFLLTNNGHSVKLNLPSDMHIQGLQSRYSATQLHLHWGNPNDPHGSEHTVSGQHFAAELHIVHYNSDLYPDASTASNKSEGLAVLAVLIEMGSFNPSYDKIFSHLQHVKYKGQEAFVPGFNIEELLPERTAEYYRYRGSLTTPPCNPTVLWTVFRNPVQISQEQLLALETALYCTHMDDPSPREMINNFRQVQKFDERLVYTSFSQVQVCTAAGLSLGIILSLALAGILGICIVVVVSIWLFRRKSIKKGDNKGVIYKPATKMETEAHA
Source text: as §3
Data set [6] deals with human CA VII (Homo sapiens, UniProt P43166). The data set is described as follows: stopped-flow CO2 hydrase assay, CA VII.
human CA VII, sequence (P43166 whole entry): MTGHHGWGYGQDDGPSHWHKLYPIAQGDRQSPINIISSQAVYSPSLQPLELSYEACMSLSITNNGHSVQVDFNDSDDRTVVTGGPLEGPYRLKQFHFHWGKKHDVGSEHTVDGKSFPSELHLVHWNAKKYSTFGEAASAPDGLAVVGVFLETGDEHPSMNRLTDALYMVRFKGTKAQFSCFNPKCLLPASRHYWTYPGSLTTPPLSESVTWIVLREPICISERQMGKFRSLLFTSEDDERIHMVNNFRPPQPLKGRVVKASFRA
Source text: as §3
Data set [7] deals with human CA IV (Homo sapiens, UniProt P22748). Briefly: stopped-flow CO2 hydrase assay, CA IV.
human CA IV, sequence (P22748 19-312): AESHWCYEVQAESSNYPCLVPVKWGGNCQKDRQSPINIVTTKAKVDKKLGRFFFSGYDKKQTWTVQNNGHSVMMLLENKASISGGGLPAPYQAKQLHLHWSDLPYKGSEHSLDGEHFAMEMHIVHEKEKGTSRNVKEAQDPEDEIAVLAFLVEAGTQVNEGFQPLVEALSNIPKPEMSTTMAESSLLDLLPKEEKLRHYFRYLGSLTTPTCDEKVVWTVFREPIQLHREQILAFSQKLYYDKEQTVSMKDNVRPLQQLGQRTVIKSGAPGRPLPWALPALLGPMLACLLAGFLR
Source text: as §3
The subject of data set [8] is panel of six human solid tumour cell lines. Briefly: antiproliferative assay, whole panel of tumour cell lines. Format: cell-based. How it is done:
as §1, §2

Data set [9] addresses human CA IX (Homo sapiens, UniProt Q16790). Briefly: stopped-flow CO2 hydrase assay, CA IX. The settings on record: for Selectivity ratio I/IX: ratio of Ki CA I / CA IX; for Selectivity ratio II/IX: ratio of Ki CA II / CA IX.
Source text: as §3
The subject of data set [10] is A549 (non-small cell lung). The data set is described as follows: antiproliferative assay (NCI protocol), A549. The settings on record: Homo sapiens, A549; antiproliferative activity. The class given is cell-based, human. On the procedure: as §1, §2
The test system of data set [11] is WiDr (colon). The data set is described as follows: antiproliferative assay (NCI protocol), WiDr. The following applies: Homo sapiens, WiDr; antiproliferative activity, multidrug-resistant line. The class given is cell-based, human. How it is done:
as §1, §2

Data set [12] addresses T2, human CA I (Homo sapiens, UniProt P00915). The data set is described as follows: stopped-flow CO2 hydrase assay, CA I.
Source text: as §3
Data set [13] concerns T-47D (breast). The data set is described as follows: antiproliferative assay (NCI protocol), T-47D. The settings on record: Homo sapiens, T47D; antiproliferative activity, multidrug-resistant line. Format: cell-based, human. How it is done: as §1, §2
The test system of data set [14] is HeLa (cervix). Briefly: antiproliferative assay (NCI protocol), HeLa. Format: cell-based, human. The settings on record: Homo sapiens, HeLa; antiproliferative activity. On the procedure:
as §1, §2

The target in data set [15] is T1, human CA II. The arrangement: made in house; method as in PMID 22077347. The following applies: read-out: inhibition of hCAII; cited from earlier work.
Data set [16] concerns the target T2, human CA I. The arrangement: made in house; method as in PMID 22077347. The following applies: read-out: inhibition of hCAI; cited from earlier work.

Where two headings read alike, the source gives them in different places. Where only a bound is given, the exact number is not on record here.

T2 sequence (P00915 whole entry): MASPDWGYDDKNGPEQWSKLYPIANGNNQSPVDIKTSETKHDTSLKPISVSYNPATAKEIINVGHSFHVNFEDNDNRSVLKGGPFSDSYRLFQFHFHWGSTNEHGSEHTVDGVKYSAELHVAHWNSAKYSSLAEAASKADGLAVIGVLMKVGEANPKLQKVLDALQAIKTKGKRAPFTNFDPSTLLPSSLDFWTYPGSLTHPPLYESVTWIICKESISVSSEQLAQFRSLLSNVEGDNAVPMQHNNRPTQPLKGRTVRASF

As to `Cc1c(Cl)c(=O)oc2cc(OCCCCCCNc3nc4ccccc4o3)ccc12` [Compound 8e], the GI50 in data set [1] is over 100 µM; in data set [3] it was 3.1 ± 0.5 µM; in data set [4], 5.1 ± 1.4 µM; in data set [8] (Homo sapiens, range over the tumour cell lines, read-out: GI50 for all cell lines), 2.6 to 5.1 µM; in [10], 2.6 ± 0.5 µM; in data set [11], 4.2 ± 0.5 µM. Also, the values for the GI50 in data set [13] and in [14] were 4.3 ± 0.1 µM and 3.9 ± 0.7 µM, respectively. Further, the Ki in data set [2] is over 10 µM; in data set [5] it was 0.0757 µM; in [6], over 10 µM; in [7], 0.82 µM; in data set [9], 0.0743 µM; in data set [12] it was over 10 µM. Further, the “Selectivity ratio I/XII” value in data set [5] is given as over 132.1. Besides, the “Selectivity ratio II/XII” value in [5] is reported as over 132.1. Also, the “increased activity compared to 5-FU” value in data set [8] (multidrug-resistant cell lines) is “up to 11.7 fold”. In addition, in data set [8] (multidrug-resistant cell lines), the “increased activity compared to CDDP” value is given as “up to 6.2 fold”. Also, in data set [9], the “Selectivity ratio I/IX” value was over 134.6. For the same compound, in [9], the “Selectivity ratio II/IX” value is on record as over 134.6.

Regarding `O=c1cc(-c2ccccc2)c2ccc(OCCCCCCNc3nc4ccccc4o3)cc2o1` [Compound 8f], the GI50 in data set [1], in data set [3], in data set [4], in [10], in data set [11] and in [13] was over 100 µM throughout. Further, the 50% growth inhibitory concentration (GI50) in [14] is over 100 µM. The Ki is over 10 µM in [2]; 0.316 µM in data set [5]; over 10 µM in data set [6]; 0.808 µM in data set [7]; 0.271 µM in [9]; over 10 µM in data set [12]. Further, the “Selectivity ratio I/XII” value in data set [5] is listed as over 31.6. The “Selectivity ratio II/XII” value in [5] is recorded as over 31.6. For the same compound, the “impairment of inhibition of CA XII compared to Me-counterpart 8c” value in [5] (versus 8c) is on record as 5 fold. Also, the “antiproliferative activity against all cell lines (in words)” value in data set [8] was “completely abolished activity against all cell lines”. Further, the “Selectivity ratio I/IX” value in data set [9] is over 36.9. Also, in data set [9], the “Selectivity ratio II/IX” value is on record as over 36.9. Moreover, the “impairment of inhibition of CA IX compared to Me-counterpart 8c” value in [9] (versus 8c) is recorded as 3 fold.

For `Cc1cc(=O)oc2cc(O)ccc12` [Compound 3a, 4-methylumbelliferone], the Ki in data set [15] and in [16] was over 100 µM in each case.
